Laboratory results reported in patent US20020123503A1, “Cabergoline pharmaceutical compositions and methods of use thereof” (priority 2000, published 2002).

Assay: Chemical stability of cabergoline and its tablets
Type: physicochemical
Details: normal wet granulation techniques

- degradation of the active ingredient: did degrade
SMILES: C=CCN1C[C@H](C(=O)N(CCCN(C)C)C(=O)NCC)C[C@@H]2c3cccc4[nH]cc(c34)C[C@H]21 [cabergoline, 1((6-allylergolin-8.beta,-yl)-carbony.)-1-(3-(dimethylamino)propyl)-3ethylurea]
